Test results: US7205305B2, “Inhibitors of p38” (Vertex Pharmaceuticals Incorporated, priority 1996, dated 2007)

Assays:
[1] = test system: IL-1 production in LPS-stimulated PBMCs; assay: Inhibition of IL-1 production in LPS-stimulated PBMCs ("cell"); type: cell-based, human; conditions: Homo sapiens, PBMC
Experimental: (§1) Inhibitors were serially diluted in DMSO from a 20 mM stock. At least 6 serial dilutions were prepared. Then 4× inhibitor stocks were prepared by adding 4 μl of an inhibitor dilution to 1 ml of RPMI1640 medium/10% fetal bovine serum. The 4× inhibitor stocks contained inhibitor at concentrations of 80 μM, 32 μM, 12.8 μM, 5.12 μM, 2.048 μM, 0.819 μM, 0.328 μM, 0.131 μM, 0.052 μM, 0.021 μM etc. The 4× inhibitor stocks were pre-warmed at 37° C. until use.
(§2) Fresh human blood buffy cells were separated from other cells in a Vacutainer CPT from Becton & Dickinson (containing 4 ml blood and enough DPBS without Mg^2+/Ca^2+ to fill the tube) by centrifugation at 1500×g for 15 min. Peripheral blood mononuclear cells (PBMCs), located on top of the gradient in the Vacutainer, were removed and washed twice with RPMI1640 medium/10% fetal bovine serum. PBMCs were collected by centrifugation at 500×g for 10 min. The total cell number was determined using a Neubauer Cell Chamber and the cells were adjusted to a concentration of 4.8×10^6 cells/ml in cell culture medium (RPMI1640 supplemented with 10% fetal bovine serum).
(§3) We placed 100 μl of cell suspension or whole blood in each well of a 96-well cell culture plate. Then we added 50 μl of the 4× inhibitor stock to the cells. Finally, we added 50 μl of a lipopolysaccharide (LPS) working stock solution (16 ng/ml in cell culture medium) to give a final concentration of 4 ng/ml LPS in the assay. The total assay volume of the vehicle control was also adjusted to 200 μl by adding 50 μl cell culture medium. The PBMC cells or whole blood were then incubated overnight (for 12–15 hours) at 37° C./5% CO2 in a humidified atmosphere.
(§4) The next day the cells were mixed on a shaker for 3–5 minutes before centrifugation at 500×g for 5 minutes. Cell culture supernatants were harvested and analyzed by ELISA for levels of IL-1b (R & D Systems, Quantikine kits, #DBL50), TNF-α (BioSource, #KHC3012), IL-6 (Endogen, #EH2-IL6) and IL-8 (Endogen, #EH2-IL8) according to the instructions of the manufacturer. The ELISA data were used to generate dose-response curves from which IC50 values were derived.

activated p38 = activated p38 (Homo sapiens, UniProt Q16539); assay: Inhibition of phosphorylation of EGF receptor peptide ("kinase"); type: biochemical; conditions: inhibition of phosphorylation of EGF receptor peptide by activated p38
Sequence of activated p38 (Q16539 whole entry): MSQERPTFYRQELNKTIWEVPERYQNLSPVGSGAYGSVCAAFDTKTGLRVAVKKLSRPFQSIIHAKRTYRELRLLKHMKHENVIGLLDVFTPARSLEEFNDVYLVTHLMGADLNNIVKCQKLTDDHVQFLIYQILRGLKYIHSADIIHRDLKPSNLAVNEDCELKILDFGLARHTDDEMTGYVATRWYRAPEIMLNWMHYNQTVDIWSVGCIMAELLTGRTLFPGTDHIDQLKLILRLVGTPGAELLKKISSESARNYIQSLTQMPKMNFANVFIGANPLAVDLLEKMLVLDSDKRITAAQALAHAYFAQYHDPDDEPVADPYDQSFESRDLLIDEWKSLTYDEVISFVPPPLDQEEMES
Experimental: This assay was carried out in the presence of 10 mM MgCl2, 25 mM β-glycerophosphate, 10% glycerol and 100 mM HEPES buffer at pH 7.6. […] The stock solution was aliquotted into vials. A fixed volume of DMSO or inhibitor in DMSO (final concentration of DMSO in reaction was 5%) was introduced to each vial, mixed and incubated for 15 minutes at room temperature. EGF receptor peptide, […], a phosphoryl acceptor in p38-catalyzed kinase reaction (1), was added to each vial to a final concentration of 200 μM. The kinase reaction was initiated with ATP (100 μM) and the vials were incubated at 30° C. After 30 minutes, the reactions were quenched with equal volume of 10% trifluoroacetic acid (TFA).
The phosphorylated peptide was quantified by HPLC analysis. Separation of phosphorylated peptide from the unphosphorylated peptide was achieved on a reverse phase column (Deltapak, 5 μm, C18 100D, part no. 011795) with a binary gradient of water and acteonitrile, each containing 0.1% TFA.

[2] = test system: TNF production in LPS-stimulated PBMCs; assay: Inhibition of TNF production in LPS-stimulated PBMCs ("cell"); type: cell-based, human; conditions: Homo sapiens, PBMC
Experimental: as §1, §2, §3, §4

Compound | IC50 [1] | IC50 (activated p38) | IC50 [2]
Cc1cc(SC2=NN3CNC(=O)C(c4c(Cl)cccc4Cl)=C3C=C2)c(Cl)cc1F [Compound 133] | ≤ 100 nM | ≤ 100 nM | ≤ 100 nM
O=c1ncn2nc(Sc3ccc(Cl)c(Cl)c3)ccc2c1-c1c(Cl)cccc1Cl [Compound 16] | ≥ 500 nM | 100 to 1000 nM | 100 to 500 nM
NC(=O)C(c1cccc(-c2ccc(F)c(Cl)c2)n1)c1c(Cl)cccc1Cl (stereo not drawn) [Compound 313] | ≥ 500 nM | 100 to 1000 nM | ≥ 500 nM
N=C(N)Nc1cc(F)c(F)cc1SC1=NN2CNC(=O)C(c3c(Cl)cccc3Cl)=C2C=C1 [Compound 124] | ≥ 500 nM | ≥ 1000 nM | ≥ 500 nM
O=c1ncn2nc(Sc3cccc(Cl)c3)ccc2c1-c1c(Cl)cccc1Cl [Compound 25] | 100 to 500 nM | 100 to 1000 nM | ≥ 500 nM
NC(=O)C(c1cccc(-c2ccccc2CN2CCCC2)n1)c1c(Cl)cccc1Cl (stereo not drawn) [Compound 350] | 100 to 500 nM | ≥ 1000 nM | ≥ 500 nM
Nc1cc(C(F)(F)F)ccc1SC1=NN2CNC(=O)C(c3c(Cl)cccc3Cl)=C2C=C1 [Compound 126] | 100 to 500 nM | ≥ 1000 nM | ≥ 500 nM
NC(=O)C(c1ccc(C(=O)c2ccccc2)cn1)c1c(Cl)cccc1Cl (stereo not drawn) [Compound 209] | ≥ 500 nM |  | 
Cc1ccccc1-c1c(=O)ncn2nc(Sc3ccccc3)ccc12 [Compound 8] | ≥ 500 nM | ≥ 1000 nM | ≥ 500 nM
NC(=O)C(c1cccc(-c2cccc(Cl)c2)n1)c1c(F)cccc1Cl (stereo not drawn) [Compound 341] | 100 to 500 nM | 100 to 1000 nM | 100 to 500 nM
CN(C)C(=O)c1ccccc1Sc1ccc2c(-c3c(Cl)cccc3Cl)c(=O)ncn2n1 [Compound 31] | ≥ 500 nM | ≥ 1000 nM | ≥ 500 nM
Cc1ccc(Sc2ccc3c(-c4c(Cl)cccc4Cl)c(=O)ncn3n2)cc1 [Compound 14] | 100 to 500 nM | ≥ 1000 nM | ≥ 500 nM
Cc1cc(Sc2ccc3c(-c4c(Cl)cccc4Cl)c(=O)ncn3n2)c(Cl)cc1F [Compound 41] | ≤ 100 nM | ≤ 100 nM | ≤ 100 nM
Cc1ccc(Sc2ccc3c(-c4c(Cl)cccc4Cl)c(=O)ncn3n2)cc1C [Compound 19] | ≥ 500 nM | ≥ 1000 nM | ≥ 500 nM
Cc1ccc(-c2cccc(C(C(N)=O)c3c(Cl)cccc3Cl)n2)cc1 (stereo not drawn) [Compound 311] | ≥ 500 nM | 100 to 1000 nM | ≥ 500 nM
Cc1ccc(-c2cccc(N(C(N)=O)c3c(Cl)cccc3Cl)n2)cc1 [Compound 406] | 100 to 500 nM | 100 to 1000 nM | ≥ 500 nM
NC(=O)C(c1cccc(-c2ccc(F)c(Cl)c2)n1)c1c(F)cccc1Cl (stereo not drawn) [Compound 333] | ≥ 500 nM | 100 to 1000 nM | ≥ 500 nM
O=C1NCN2N=C(Sc3ccccn3)C=CC2=C1c1c(Cl)cccc1Cl [Compound 107] | ≥ 500 nM | 100 to 1000 nM | ≥ 500 nM
Nc1ccc(F)c(C2=C3C=CC(Sc4ccc(F)cc4)=NN3CNC2=O)c1Cl [Compound 132] | ≤ 100 nM | ≤ 100 nM | 100 to 500 nM
NC(=O)C(c1ccc(C(O)c2ccccc2)cn1)c1c(Cl)cccc1Cl (stereo not drawn) [Compound 208] | 100 to 500 nM |  | 
COc1ccc(-c2cccc(C(C(N)=O)c3c(Cl)cccc3Cl)n2)cc1 (stereo not drawn) [Compound 352] | ≥ 500 nM | ≥ 1000 nM | 
CN(C)/C=N\c1ccc(-c2c(=O)ncn3nc(Sc4ccc(F)cc4)ccc23)c(Cl)c1 [Compound 50] |  | ≥ 1000 nM | 
NC(=O)C(c1cccc(-c2ccccc2CCO)n1)c1c(Cl)cccc1Cl (stereo not drawn) [Compound 378] |  | ≤ 100 nM | 
NC(=O)C(c1cccc(-c2ccsc2)n1)c1c(F)cccc1Cl (stereo not drawn) [Compound 339] |  | ≥ 1000 nM | 
CSc1ccc(-c2cccc(C(C(N)=O)c3c(Cl)cccc3Cl)n2)cc1 (stereo not drawn) [Compound 314] |  | ≥ 1000 nM | 
Nc1ccc(F)c(-c2c(=O)ncn3nc(Sc4ccc(F)cc4)ccc23)c1Cl [Compound 42] |  | ≥ 1000 nM | 
